From US20210275657A1, “NEOANTIGENS AND USES THEREOF” (BioNTech US Inc., priority 2018, published 2021)
Where no end group is shown, it is not given here.

Legend:
[1] = target: indicated HLA alleles; test: Affinity of mutant EGFR neopeptides for indicated HLA alleles; assay type: binding, human
[2] = system: indicated HLA alleles; test: Stability of mutant EGFR neopeptides with the HLA alleles; assay type: binding, human
Experimental: (§1) Multiple peptides containing neoepitopes in the table below were either expressed or loaded onto antigen presenting cells. Mass spectrometry was then performed and the affinity of the neoepitopes for indicated HLA alleles were determined, and the stability of the neoepitopes with the HLA alleles were determined.

[3] = target: indicated HLA alleles (Homo sapiens, UniProt P01889); test: Affinity of GATA3 neoORF neoepitopes for the indicated HLA alleles (Example 9, Table 4); assay type: binding
Experimental: (§2) Multiple peptides containing the neoepitopes in Table 4 below were expressed or loaded onto antigen presenting cells (APCs). Mass spectrometry was then performed and the affinity of the neoepitopes for the indicated HLA alleles and stability of the neoepitopes with the HLA alleles was determined.

[4] = system: indicated HLA alleles; test: Stability of GATA3 neoORF neoepitopes with the HLA alleles (Example 9, Table 4); assay type: binding, human
Experimental: as §2

[5] = target: T1, HLA-B07:02 (Homo sapiens, UniProt P01889); test: Affinity measurements, competition with radiolabeled peptide (Example 20); assay type: binding
[6] = target: T1, HLA-B07:02; test: Stability measurements, pMHC-I dissociation with 125I light chain (Example 20); assay type: binding
Experimental: (§3) To measure the binding stability of peptides to Class I MHC, synthetic genes encoding biotinylated MHC-I heavy and light chains are expressed in E. coli and purified from inclusion bodies using standard methods. […] These reactions were carried out in streptavidin coated microplates to bind the biotinylated MHC-I heavy chains to the surface and allow measurement of radiolabeled light chain to monitor complex formation. Dissociation was initiated by addition of higher concentrations of unlabeled light-chain and incubation at 37° C. Stability was defined as the length of time in hours it takes for half of the complexes to dissociate, as measured by scintillation counts. Duplicate measurements were performed. The average of the two measurements was taken as the stability.

[7] = target: T2, HLA-B08:01 (Homo sapiens, UniProt P01889, A93T/A95T/D138N/E176V/E187T/K202T/Q94N/R180D/S35A/V36M/Y33D/Y91F); test: as above; assay type: binding; settings: for Average half-life: average of experiments 1 and 2
Experimental: as §3

[8] = target: T2, HLA-B08:01; test: biochemical
[9] = target: indicated HLA alleles; test: Affinity of mutant BTK neopeptides for indicated HLA alleles; assay type: binding, human
Experimental: as §1

[10] = system: indicated HLA alleles; test: Stability of mutant BTK neopeptides with the HLA alleles; assay type: binding, human
Experimental: as §1

[11] = target: indicated HLA alleles; test: Affinity of GATA3 neoORF neoepitopes for the indicated HLA alleles (Example 9, Table 4); assay type: binding, human; settings: read-out: Observed MHC affinity
Experimental: as §2

[12] = target: T3, HLA-A02:01 (Homo sapiens, UniProt P04439, D140Y/D185E/D98H/E176V/E277Q/G131W/G231S/I119V/I121R/I166T/I218V/L300P/L318F/N151K/N90K/P208A/P217A/Q86G/Q94H/R138H/R169H/T345S); test: Detection of GATA3 neoORF peptides by mass spectrometry (Example 8); assay type: cell-based; settings: 293T cells transduced with GATA3 neoORF lentiviral vector, expressing HLA-A02:01; peptides eluted from HLA-peptide complexes, MS/MS
[13] = system: antigen specific CD8+ T cells; test: Antigen specific CD8+ T cell induction monitored with pMHC multimers (Example 10); assay type: cell-based, human
Experimental: PBMC samples from a human donor were used to perform antigen specific T cell induction. CD8^+ T cell inductions were analyzed after manufacturing T cells. Cell samples can be taken out at different time points for analysis. pMIHC multimers were used to monitor the fraction of antigen specific CD8^+ T cells in the induction cultures. […] FIG. 9A depicts an exemplary result of a T cell response assay using PBMCs from 6 different healthy donors showing the fraction of antigen specific CD8^+ T cells that responded to […] peptide analyzed by flow cytometry after stimulation or induction. […] FIG. 9B depicts an exemplary result of a T cell response assay using PBMCs from a healthy donor showing fraction of antigen specific CD8^+ T cells that responded to […] peptide analyzed by flow cytometry after stimulation or induction.

[14] = target: T3, HLA-A02:01; test: Stability measurements, pMHC-I dissociation with 125I light chain (Example 20); assay type: binding; settings: for Average half-life: average of experiments 1 and 2
Experimental: as §3

[15] = system: CD8+ T cells; test: Immunogenicity on MHC I: FLT3L/mDC long term stimulation of healthy donor PBMCs, multimer readout (Example 23); settings: A02:01

IMQLMPFGC
Kd ([1]; EGFR_T790M, HLA A02.01): 1210 nM | Stability (1/2 hr) ([2]; EGFR_T790M, HLA A02.01): 0.3701 h

STVQLIMQL
Kd ([1]; EGFR_T790M, HLA A02.01): 7260 nM | Stability (1/2 hr) ([2]; EGFR_T790M, HLA A02.01): 0 h

CSCC[C@H](N)C(=O)N[C@@H](Cc1ccccc1)C(=O)N[C@@H](C)C(=O)N[C@H](C(=O)N[C@@H](CC(C)C)C(=O)N[C@@H](CCC(N)=O)C(=O)N[C@@H](CCCNC(=N)N)C(=O)N[C@@H](CO)C(=O)N[C@@H](CO)C(=O)N[C@@H](CC(C)C)C(=O)O)[C@@H](C)O
Kd [3]: 267 nM | Observed MHC stability ([4]; Allele B07:02): 0 h | Observed MHC stability ([4]; Allele B08:01): 0 h | IC50 [5]: 350 nM | Experiment 2 half-life [6]: 0.0 h | Average half-life ([6]; average of experiments 1 and 2): 0.0 h | Experiment 2 half-life [7]: 0 min | Average half-life [7]: 0 min

CC[C@H](C)[C@H](NC(=O)[C@@H](N)CC(C)C)C(=O)N[C@@H](CCSC)C(=O)N[C@@H](CCC(N)=O)C(=O)N[C@@H](CC(C)C)C(=O)N[C@@H](CCSC)C(=O)N1CCC[C@H]1C(=O)N[C@@H](Cc1ccccc1)C(=O)NCC(=O)N[C@@H](CS)C(=O)O
Kd ([1]; EGFR_T790M, HLA A02.01): 132 nM | Stability (1/2 hr) ([2]; EGFR_T790M, HLA A02.01): 0.3813 h

CC[C@H](C)[C@H](NC(=O)[C@H](CCCCN)NC(=O)[C@H](CO)NC(=O)[C@H](CCC(=O)O)NC(=O)[C@H](C)NC(=O)[C@H](CCCCN)NC(=O)[C@H](CC(C)C)NC(=O)[C@@H](N)Cc1ccccc1)C(=O)N[C@@H](CCSC)C(=O)N[C@@H](Cc1ccccc1)C(=O)O
Observed MHC stability ([4]; Allele B08:01): 0 h | Experiment 2 half-life [7]: 0 min | Average half-life [7]: 0 min | IC50 [8]: 90 nM

EYMANGSLL
Kd ([9]; BTK, C481S, HLA A24.02): 4.96 nM | Stability (1/2 hr) ([10]; BTK, C481S, HLA A24.02): 5.716 h

QPVLWTTPPL
Kd [3]: 109 nM | Observed MHC stability ([4]; Allele B07:02): 1.4 h

YMANGSLLN
Kd ([9]; BTK_C481S, HLA A02.01): 4000 nM | Stability (1/2 hr) ([10]; BTK_C481S, HLA A02.01): 0 h

CC[C@H](C)[C@H](N)C(=O)N[C@@H](CCSC)C(=O)N[C@@H](CCCCN)C(=O)N1CCC[C@H]1C(=O)N[C@@H](CCCCN)C(=O)N[C@@H](CCCNC(=N)N)C(=O)N[C@@H](CC(=O)O)C(=O)NCC(=O)N[C@@H](Cc1ccc(O)cc1)C(=O)N[C@@H](CCSC)C(=O)O
Observed MHC stability ([4]; Allele B08:01): 0.4 h | Experiment 1 half-life [7]: 24 min | Experiment 2 half-life [7]: 24 min | Average half-life [7]: 24 min | IC50 [8]: 40.2 nM

LIMQLMPFG
Kd ([1]; EGFR_T790M, HLA A02.01): 3340 nM | Stability (1/2 hr) ([2]; EGFR_T790M, HLA A02.01): 0 h

AIQPVLWTT
Kd ([11]; Allele A02.01): 8 nM | Observed MHC stability ([4]; Allele A02.01): 1.5 h

VLPEPHLAL [VLPEPHLAL]
detected by mass spectrometry [12]: detected | Kd ([11]; Allele A02.01): 16 nM | Observed MHC stability ([4]; Allele A02.01): 1.1 h | healthy donors showing an increase in the fraction of antigen specific CD8+ T cells ([13]; PBMCs from 3 different healthy donors): one of the three donors

MFLKAESKI
Kd ([11]; Allele A24:02): 332 nM | Observed MHC stability ([4]; Allele A24:02): 0.2 h

CC(C)C[C@H](NC(=O)[C@@H]1CCCN1C(=O)[C@H](CCC(N)=O)NC(=O)[C@H](CC(C)C)NC(=O)[C@H](C)NC(=O)[C@H](CC(C)C)NC(=O)[C@H](Cc1c[nH]cn1)NC(=O)[C@@H]1CCCN1C(=O)[C@@H](N)CCC(=O)O)C(=O)O
Kd [3]: 17 nM | Observed MHC stability ([4]; Allele B07:02): 7.2 h | Observed MHC stability ([4]; Allele B08:01): 0 h

ALQPLQPHA
Kd ([11]; Allele A02.01): 604 nM | Observed MHC stability ([4]; Allele A02.01): 1.5 h

CC[C@H](C)[C@H](NC(=O)[C@H](CCCCN)NC(=O)[C@H](CO)NC(=O)[C@H](CCC(=O)O)NC(=O)[C@H](C)NC(=O)[C@H](CCCCN)NC(=O)[C@H](CC(C)C)NC(=O)[C@H](Cc1ccccc1)NC(=O)[C@H](CCSC)NC(=O)[C@@H](N)Cc1ccc(O)cc1)C(=O)O
Observed MHC stability ([4]; Allele A02.01): 0.6 h | Observed MHC stability ([4]; Allele A24:02): 1.2 h | Observed MHC stability ([4]; Allele B08:01): 0.4 h | Experiment 1 half-life [14]: 36 min | Experiment 2 half-life [14]: 36 min | Average half-life [14]: 36 min | Experiment 1 half-life [7]: 24 min | Experiment 2 half-life [7]: 30 min | Average half-life [7]: 24 min

CC[C@H](C)[C@H](NC(=O)[C@H](CC(C)C)NC(=O)[C@H](CCC(N)=O)NC(=O)[C@@H](NC(=O)[C@@H](NC(=O)[C@H](CO)NC(=O)[C@@H](NC(=O)[C@H](CC(C)C)NC(=O)[C@@H](N)CS)[C@@H](C)O)[C@@H](C)O)C(C)C)C(=O)N[C@@H](CCSC)C(=O)O
Kd ([1]; EGFR T790M, HLA A01.01): 8280 nM | Kd ([1]; EGFR_T790M, HLA A02.01): 537 nM | Stability (1/2 hr) ([2]; EGFR T790M, HLA A01.01): 0 h | Stability (1/2 hr) ([2]; EGFR_T790M, HLA A02.01): 0 h

LTSTVQLIM
Kd ([1]; EGFR T790M, HLA A01.01): 2890 nM | Stability (1/2 hr) ([2]; EGFR T790M, HLA A01.01): 0.1037 h

CC[C@H](C)[C@H](N)C(=O)N[C@@H](CCSC)C(=O)N[C@@H](CCC(N)=O)C(=O)N[C@@H](CC(C)C)C(=O)N[C@@H](CCSC)C(=O)N1CCC[C@H]1C(=O)N[C@@H](Cc1ccccc1)C(=O)NCC(=O)N[C@@H](CS)C(=O)N[C@@H](CC(C)C)C(=O)O
Stability (1/2 hr) ([2]; EGFR_T790M, HLA A02.01): 0.5156 h | Stability (1/2 hr) ([2]; EGFR_T790M, HLA A24.02): 0 h | Stability (1/2 hr) ([2]; EGFR_T790M, HLA B08.01): 0 h

CSCC[C@H](N)C(=O)N[C@@H](C)C(=O)N[C@@H](CC(N)=O)C(=O)NCC(=O)N[C@@H](CO)C(=O)N[C@@H](CC(C)C)C(=O)N[C@@H](CC(C)C)C(=O)N[C@@H](CC(N)=O)C(=O)N[C@@H](Cc1ccc(O)cc1)C(=O)N[C@@H](CC(C)C)C(=O)O
Stability (1/2 hr) ([10]; BTK_C481S, HLA A02.01): 0 h | Stability (1/2 hr) ([10]; BTK_C481S, HLA B07.02): 0 h | Stability (1/2 hr) ([10]; BTK_C481S, HLA B08.01): 0 h

CSCC[C@H](NC(=O)[C@@H](N)CO)C(=O)N[C@@H](CC(C)C)C(=O)N[C@H](C(=O)NCC(=O)N1CCC[C@H]1C(=O)N1CCC[C@H]1C(=O)N[C@@H](C)C(=O)N[C@@H](CCCNC(=N)N)C(=O)N[C@H](C(=O)O)C(C)C)[C@@H](C)O
detected by mass spectrometry [12]: detected | Kd ([11]; Allele A02.01): 14 nM | Observed MHC stability ([4]; Allele A02.01): 21.7 h | fraction of antigen specific CD8+ T cells that responded to peptide ([13]; healthy donor PBMCs, flow cytometry after stimulation or induction): increase in the fraction of antigen specific T cells | Experiment 1 half-life [14]: 1300 min | Experiment 2 half-life [14]: 1310 min | Average half-life [14]: 1300 min | Percent positive inductions ([15]; naive CD8+ induction confirmed over two stimulations): 20% | Number of wells with a reactive TCR ([15]; of 5 wells tested, healthy donor PBMCs): 1
